# Laboratory results taken from publication PMC10066365, “Nemacol is a small molecule inhibitor of C. elegans vesicular acetylcholine transporter with anthelmintic potential” (Nature Communications, 2023).
# Several values for one entry are separate records, joined by “and”; a condition that tells them apart may be missing. Equal values may be shown once. Read-outs that look alike come from different tables or passages of the source.
# Experiments:
# Haemonchus contortus = Haemonchus contortus L3 Migration Trap Assay (motility, 24 h exposure)
# rat VAChT = biological target: T1, rat VAChT (Rattus norvegicus, UniProt Q62666); experiment: [3H]Vesamicol competitive radioligand binding, PC12 cells expressing ratVAChT; conditions: [3H]Vesamicol binding
# T1 construct: expressed in transfected cells; host or cells: rat PC12 (PC12 A123.7) cells, stably transfected; shared by Dr. Ali Roghani (Texas Tech University)
# T1 sequence (Q62666 1-530): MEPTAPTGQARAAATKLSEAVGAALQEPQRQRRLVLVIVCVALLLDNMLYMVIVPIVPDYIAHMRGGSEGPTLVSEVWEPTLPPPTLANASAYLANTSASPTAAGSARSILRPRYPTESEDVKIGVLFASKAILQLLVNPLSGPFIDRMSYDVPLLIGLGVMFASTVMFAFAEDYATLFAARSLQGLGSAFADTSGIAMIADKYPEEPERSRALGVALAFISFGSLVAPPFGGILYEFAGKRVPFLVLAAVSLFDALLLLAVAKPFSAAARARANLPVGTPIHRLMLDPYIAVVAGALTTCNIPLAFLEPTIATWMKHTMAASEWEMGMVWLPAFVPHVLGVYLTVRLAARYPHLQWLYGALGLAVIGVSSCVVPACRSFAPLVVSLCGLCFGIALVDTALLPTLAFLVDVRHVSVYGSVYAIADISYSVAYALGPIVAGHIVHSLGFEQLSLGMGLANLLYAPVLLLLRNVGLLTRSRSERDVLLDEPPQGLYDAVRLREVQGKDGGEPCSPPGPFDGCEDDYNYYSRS
# [1] = test system: Dirofilaria immitis L3/L4; experiment: Dirofilaria immitis L3/L4 motility assay (DiroImager, 72 h); conditions: Dirofilaria immitis L4
# Pristionchus pacificus = Pristionchus pacificus motor disruption dose-response on solid media, 1 h; conditions: for mean % any phene: any phenotype (coiled, jerky-Unc or paralyzed) at one hour, mean of three biological replicates
# [2] = test system: Dirofilaria immitis microfilariae; experiment: Dirofilaria immitis microfilariae immobility assay (DiroImager, 72 h); conditions: Dirofilaria immitis microfilariae
# In short: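 About 250 freshly purified microfilariae of the Missouri isolate per well in supplemented RPMI 1640, exposed to compound for 72 h. Motility scored by automated whole-plate optical imaging; medium with 1% DMSO as negative control.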
# C. elegans = C. elegans motor phenotype scoring on solid media (Punc/jerky-unc, coiled, paralyzed), wild-type young adults; type: in vivo, Caenorhabditis elegans; conditions: for atypical locomotion (number of animals) / coiled (number of animals) / no phene (number of animals) / paralyzed (number of animals) / any phene: mean % fraction of young adults exhibiting any phenotype (coiled, jerky-Unc or paralyzed): one hour; for atypical locomotion (number of animals) / coiled (number of animals) / no phene (number of animals) / paralyzed (number of animals): young adults, 20 animals per trial, single technical replicate; for any phene: mean % fraction of young adults exhibiting any phenotype (coiled, jerky-Unc or paralyzed): mean of three biological replicates
# [3] = conc 3.75, count of 20 animals per trial, one hour
# [4] = conc 15, count of 20 animals per trial, one hour
# [5] = conc 60, count of 20 animals per trial, one hour
structure (smiles),measurement,setting,value
CC1CCC(N2CCN(c3ccc(F)cc3)CC2)CC1 (stereo not drawn) [Nemacol-53],effect on Ivermectin's ability to paralyze H. contortus,"Haemonchus contortus; EC30 concentration of Nemacol-53 (26.4 µM), P = 0.002",significantly enhance
same,EC30,Haemonchus contortus; H. contortus L3 motility,26 µM
same,EC50,Haemonchus contortus; Haemonchus contortus,40.6 µM
same,Ki,"rat VAChT; PC12, experiment 1, read-out: expt 1 Ki (M) vs. rat VAChT (PC12)",5.54e-07 M
same,Ki,"rat VAChT; PC12, experiment 2, read-out: expt 2 Ki (M) vs. rat VAChT (PC12)",1.04e-06 M
same,Ki,"rat VAChT; rat VAChT (PC12), mean of 2-3 experiments, read-out: mean Ki",7.98e-07 M
same,"% effect (motility), DIROIM L4",[1]; 10 µM,5%
same,"% effect (motility), DIROIM L4",[1]; 50 µM,20%
same,EC50,"Pristionchus pacificus; Pristionchus pacificus, 1 h, read-out: P. pacificus motor disruption EC50",12.8 ± 1.2 µM
same,mean % any phene,Pristionchus pacificus; conc 3.75,8.333%
same,rep 1 atypical locomotion,Pristionchus pacificus; [3],2 and 3
same,rep 1 coiled,Pristionchus pacificus; [3],0
same,rep 1 no phene,Pristionchus pacificus; [3],18 and 17
same,rep 1 paralyzed,Pristionchus pacificus; [3],0
same,rep 2 atypical locomotion,Pristionchus pacificus; [3],1
same,rep 2 coiled,Pristionchus pacificus; [3],0
same,rep 2 no phene,Pristionchus pacificus; [3],19
same,rep 2 paralyzed,Pristionchus pacificus; [3],0
same,rep 3 atypical locomotion,Pristionchus pacificus; [3],2 and 1
same,rep 3 coiled,Pristionchus pacificus; [3],0
same,rep 3 no phene,Pristionchus pacificus; [3],18 and 19
same,rep 3 paralyzed,Pristionchus pacificus; [3],0
same,mean % any phene,Pristionchus pacificus; conc 15,57.5%
same,rep 1 atypical locomotion,Pristionchus pacificus; [4],12 and 13
same,rep 1 no phene,Pristionchus pacificus; [4],7
same,rep 1 paralyzed,Pristionchus pacificus; [4],0
same,rep 2 paralyzed,Pristionchus pacificus; [4],0
same,rep 3 coiled,Pristionchus pacificus; [4],2
same,mean % any phene,Pristionchus pacificus; conc 60,100%
same,rep 1 atypical locomotion,Pristionchus pacificus; [5],0
same,rep 1 coiled,Pristionchus pacificus; [5],8 and 13
same,rep 1 no phene,Pristionchus pacificus; [5],0
same,rep 1 paralyzed,Pristionchus pacificus; [5],12 and 7
same,rep 2 coiled,Pristionchus pacificus; [5],9 and 14
same,rep 2 no phene,Pristionchus pacificus; [5],0
same,rep 2 paralyzed,Pristionchus pacificus; [5],10 and 6
same,rep 3 atypical locomotion,Pristionchus pacificus; [5],2 and 1
same,rep 3 coiled,Pristionchus pacificus; [5],7 and 12
same,rep 3 no phene,Pristionchus pacificus; [5],0
same,rep 3 paralyzed,Pristionchus pacificus; [5],11 and 7
same,"% effect (motility), DIROIM MF",[2]; 0.016 µM,0%
same,"% effect (motility), DIROIM MF",[2]; 0.08 µM,0%
same,"% effect (motility), DIROIM MF",[2]; 0.4 µM,0%
same,"% effect (motility), DIROIM MF",[2]; 2 µM,0%
same,"% effect (motility), DIROIM MF",[2]; 10 µM,0%
same,atypical locomotion (number of animals),C. elegans; 3.75uM,6 and 2 and 1 and 3 and 13 and 8
same,coiled (number of animals),C. elegans; 3.75uM,0
same,no phene (number of animals),C. elegans; 3.75uM,14 and 18 and 19 and 17 and 7 and 12
same,paralyzed (number of animals),C. elegans; 3.75uM,0
same,"any phene: mean % fraction of young adults exhibiting any phenotype (coiled, jerky-Unc or paralyzed)",C. elegans; 3.75uM,27.5%
same,atypical locomotion (number of animals),C. elegans; 15uM,3 and 9 and 11 and 13 and 18 and 17
same,coiled (number of animals),C. elegans; 15uM,0 and 1 and 4 and 3 and 2
same,no phene (number of animals),C. elegans; 15uM,4 and 2 and 0 and 3
same,paralyzed (number of animals),C. elegans; 15uM,13 and 8 and 5 and 4 and 0
same,"any phene: mean % fraction of young adults exhibiting any phenotype (coiled, jerky-Unc or paralyzed)",C. elegans; 15uM,92.5%
same,atypical locomotion (number of animals),C. elegans; 60uM,0 and 2
same,coiled (number of animals),C. elegans; 60uM,13 and 15 and 9 and 12 and 16
same,no phene (number of animals),C. elegans; 60uM,0
same,paralyzed (number of animals),C. elegans; 60uM,7 and 5 and 9 and 6 and 2
same,EC50,"C. elegans; Caenorhabditis elegans, any motor phenotype after 1 h on solid media, ± 95% CI, read-out: C. elegans - motor disruption EC50",5.5 ± 1.6 µM
